Test results from PubChem BioAssay (NCI).
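All cell lines were grown in 96-well plates and treated with compound for 48 hours. The concentration for 50% growth inhibition is given as GI50. Definition used: TGI = concentration required for complete inhibition of growth.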

Experiments:
Experiment in all cases: NCI tumour cell line growth inhibition, 48 h
[1] = tested on: MDA-MB-231 breast
[2] = tested on: CAKI-1 renal
[3] = tested on: UACC-257 melanoma
[4] = tested on: OVCAR-5 ovarian
[5] = tested on: TK-10 renal
[6] = tested on: NCI/ADR-RES ovarian
[7] = tested on: T-47D breast
[8] = tested on: SK-MEL-5 melanoma
[9] = tested on: HT29 colon
[10] = tested on: SNB-75 CNS
[11] = tested on: OVCAR-8 ovarian
[12] = tested on: EKVX NSCLC
[13] = tested on: MOLT-4 leukemia
[14] = tested on: M14 melanoma
[15] = tested on: OVCAR-3 ovarian
[16] = tested on: SK-MEL-2 melanoma
[17] = tested on: HOP-92 NSCLC
[18] = tested on: MDA-MB-435
[19] = tested on: SF-539 CNS
[20] = tested on: IGROV1 ovarian
[21] = tested on: HCT-116 colon
[22] = tested on: BT-549 breast
[23] = tested on: LOX IMVI melanoma
[24] = tested on: MALME-3M melanoma
[25] = tested on: RXF 393 renal
[26] = tested on: MCF7 breast
[27] = tested on: A498 renal
[28] = tested on: NCI-H23 lung
[29] = tested on: SF-295 CNS
[30] = tested on: SNB-19 CNS
[31] = tested on: PC-3 prostate
[32] = tested on: OVCAR-4 ovarian
[33] = tested on: SK-MEL-28 melanoma
[34] = tested on: CCRF-CEM leukemia
[35] = tested on: KM12 colon
[36] = tested on: SW-620 colon
[37] = tested on: DU-145 prostate
[38] = tested on: HOP-62 NSCLC
[39] = tested on: RPMI-8226 leukemia
[40] = tested on: SF-268 CNS
[41] = tested on: COLO 205 colon
[42] = tested on: UO-31 renal
[43] = tested on: U251 CNS
[44] = tested on: 786-0 renal
[45] = tested on: NCI-H226 lung
[46] = tested on: NCI-H460 lung
[47] = tested on: A549 NSCLC
[48] = tested on: HCC-2998 colon
[49] = tested on: UACC-62 melanoma
[50] = tested on: HCT-15 colon
[51] = tested on: HS 578T breast
[52] = tested on: SK-OV-3 ovarian
[53] = tested on: SN12C renal
[54] = tested on: NCI-H522 lung
[55] = tested on: ACHN renal
[56] = tested on: K-562 leukemia

For COc1ccc(-c2cnc(-c3ccc(OC)cc3)n2-c2cc(OC)c(OC)c(OC)c2)cc1, the GI50 [1] was 18.4 µM, the TGI [1] was 74.3 µM and the GI50 [2] was 23.8 µM. The TGI [2] was 80.2 µM, the GI50 [3] was 22.9 µM and the TGI [3] was 85.9 µM. For the same compound, the GI50 [4] was 45.9 µM, the TGI [4] was over 100 µM and the GI50 [5] was 20.5 µM. For the same compound, the TGI [5] was 39.2 µM, the GI50 [6] was 30.3 µM and the TGI [6] was over 100 µM. For the same compound, the GI50 [7] was 39.4 µM, the TGI [7] was over 100 µM and the GI50 [8] was 22.7 µM. For the same compound, the TGI [8] was 67.4 µM, the GI50 [9] was 47.7 µM and the TGI [9] was over 100 µM. It also gave a GI50 [10] of 12.6 µM, a TGI [10] of 30.1 µM and a GI50 [11] of 19.7 µM. The TGI [11] was 50.7 µM, the GI50 [12] was 36.8 µM and the TGI [12] was over 100 µM. It also gave a GI50 [13] of 13.1 nM, a TGI [13] of 44 nM and a GI50 [14] of 44.7 µM. It also gave a TGI [14] of over 100 µM, a GI50 [15] of 24.7 µM and a TGI [15] of 65 µM. It also gave a GI50 [16] of 32.3 µM, a TGI [16] of over 100 µM and a GI50 [17] of 19.7 µM. For the same compound, the TGI [17] was 52.1 µM, the GI50 [18] was 31.2 µM and the TGI [18] was over 100 µM. For the same compound, the GI50 [19] was 23.9 µM, the TGI [19] was 54.9 µM and the GI50 [20] was 28.3 µM. The TGI [20] was over 100 µM, the GI50 [21] was 30.9 µM and the TGI [21] was over 100 µM. For the same compound, the GI50 [22] was 28.6 µM, the TGI [22] was 86.1 µM and the GI50 [23] was 34.5 µM. The TGI [23] was over 100 µM, the GI50 [24] was 13.3 µM and the TGI [24] was 30.6 µM. The GI50 [25] was 14 µM, the TGI [25] was 35.9 µM and the GI50 [26] was 38.5 µM. For the same compound, the TGI [26] was over 100 µM, the GI50 [27] was 12.1 µM and the TGI [27] was 39.5 µM. The GI50 [28] was 28.6 µM, the TGI [28] was over 100 µM and the GI50 [29] was 22.1 µM. For the same compound, the TGI [29] was 61.1 µM, the GI50 [30] was 19.8 µM and the TGI [30] was 60.5 µM. It also gave a GI50 [31] of 29.4 µM, a TGI [31] of over 100 µM and a GI50 [32] of 33.5 µM. It also gave a TGI [32] of 58.3 µM, a GI50 [33] of 24.4 µM and a TGI [33] of 92 µM. The GI50 [34] was over 100 µM, the TGI [34] was over 100 µM and the GI50 [35] was 34.9 µM. The TGI [35] was over 100 µM, the GI50 [36] was over 100 µM and the TGI [36] was over 100 µM. For the same compound, the GI50 [37] was 30.7 µM, the TGI [37] was 78.2 µM and the GI50 [38] was 21.4 µM. For the same compound, the TGI [38] was 44.9 µM, the GI50 [39] was 25.7 µM and the TGI [39] was over 100 µM. The GI50 [40] was 30.6 µM, the TGI [40] was over 100 µM and the GI50 [41] was 56 µM. The TGI [41] was over 100 µM, the GI50 [42] was 18.2 µM and the TGI [42] was 50 µM. For the same compound, the GI50 [43] was 24.4 µM, the TGI [43] was 69.2 µM and the GI50 [44] was 24.2 µM. For the same compound, the TGI [44] was 61.4 µM, the GI50 [45] was 36.7 µM and the TGI [45] was over 100 µM. It also gave a GI50 [46] of 30.7 µM, a TGI [46] of over 100 µM and a GI50 [47] of 23.1 µM. It also gave a TGI [47] of 82.2 µM, a GI50 [48] of 45.7 µM and a TGI [48] of over 100 µM. For the same compound, the GI50 [49] was 17.3 µM, the TGI [49] was 45 µM and the GI50 [50] was 36 µM. The TGI [50] was over 100 µM, the GI50 [51] was 22.9 µM and the TGI [51] was 64.2 µM. For the same compound, the GI50 [52] was 23.1 µM, the TGI [52] was 72.3 µM and the GI50 [53] was 20.8 µM. The TGI [53] was 56.7 µM, the GI50 [54] was 29.5 µM and the TGI [54] was over 100 µM.
With O=Cc1ccc(-c2ccc(-c3nc4ccccc4s3)cc2)o1 the GI50 [1] was 22 µM, the TGI [1] was 68.1 µM and the GI50 [2] was over 100 µM. The TGI [2] was over 100 µM, the GI50 [3] was over 100 µM and the TGI [3] was over 100 µM. It also gave a GI50 [4] of over 100 µM, a TGI [4] of over 100 µM and a GI50 [5] of 22.4 µM. The TGI [5] was 54 µM, the GI50 [6] was 97.7 µM and the TGI [6] was over 100 µM. It also gave a GI50 [7] of over 100 µM, a TGI [7] of over 100 µM and a GI50 [8] of 96.4 µM. For the same compound, the TGI [8] was over 100 µM, the GI50 [9] was over 100 µM and the TGI [9] was over 100 µM. It also gave a GI50 [10] of over 100 µM, a TGI [10] of over 100 µM and a GI50 [11] of 70.7 µM. It also gave a TGI [11] of over 100 µM, a GI50 [12] of over 100 µM and a TGI [12] of over 100 µM. The GI50 [13] was over 100000 nM, the TGI [13] was over 100000 nM and the GI50 [14] was over 100 µM. For the same compound, the TGI [14] was over 100 µM, the GI50 [15] was 16 µM and the TGI [15] was 74.1 µM. The GI50 [16] was over 100 µM, the TGI [16] was over 100 µM and the GI50 [17] was 94.3 µM. It also gave a TGI [17] of over 100 µM, a GI50 [18] of over 100 µM and a TGI [18] of over 100 µM. For the same compound, the GI50 [20] was over 100 µM, the TGI [20] was over 100 µM and the GI50 [21] was over 100 µM. It also gave a TGI [21] of over 100 µM, a GI50 [22] of over 100 µM and a TGI [22] of over 100 µM. The GI50 [23] was 60.2 µM, the TGI [23] was over 100 µM and the GI50 [25] was 62.7 µM. The TGI [25] was over 100 µM, the GI50 [26] was 1.53 µM and the TGI [26] was 56.6 µM. For the same compound, the GI50 [27] was 3.21 µM, the TGI [27] was 18.8 µM and the GI50 [28] was 67.7 µM. The TGI [28] was over 100 µM, the GI50 [29] was 41.7 µM and the TGI [29] was over 100 µM. It also gave a GI50 [30] of over 100 µM, a TGI [30] of over 100 µM and a GI50 [31] of 45.2 µM. It also gave a TGI [31] of over 100 µM, a GI50 [32] of over 100 µM and a TGI [32] of over 100 µM. For the same compound, the GI50 [33] was over 100 µM, the TGI [33] was over 100 µM and the GI50 [35] was 46.5 µM. The TGI [35] was over 100 µM, the GI50 [36] was 89 µM and the TGI [36] was over 100 µM. The GI50 [37] was 35 µM, the TGI [37] was over 100 µM and the GI50 [38] was over 100 µM. For the same compound, the TGI [38] was over 100 µM, the GI50 [39] was 20.9 µM and the TGI [39] was over 100 µM. It also gave a GI50 [40] of 72.6 µM, a TGI [40] of over 100 µM and a GI50 [41] of over 100 µM. For the same compound, the TGI [41] was over 100 µM, the GI50 [42] was over 100 µM and the TGI [42] was over 100 µM. It also gave a GI50 [43] of 35.2 µM, a TGI [43] of over 100 µM and a GI50 [44] of over 100 µM. For the same compound, the TGI [44] was over 100 µM, the GI50 [45] was 5.03 µM and the TGI [45] was over 100 µM. For the same compound, the GI50 [46] was 76.4 µM, the TGI [46] was over 100 µM and the GI50 [47] was over 100 µM. The TGI [47] was over 100 µM, the GI50 [48] was over 100 µM and the TGI [48] was over 100 µM. For the same compound, the GI50 [49] was over 100 µM, the TGI [49] was over 100 µM and the GI50 [50] was 90.4 µM. It also gave a TGI [50] of over 100 µM, a GI50 [51] of over 100 µM and a TGI [51] of over 100 µM. For the same compound, the GI50 [55] was over 100 µM, the TGI [55] was over 100 µM and the GI50 [52] was over 100 µM. For the same compound, the TGI [52] was over 100 µM, the GI50 [53] was over 100 µM and the TGI [53] was over 100 µM. It also gave a GI50 [54] of over 100 µM, a TGI [54] of over 100 µM and a GI50 [56] of over 100 µM. For the same compound, the TGI [56] was over 100 µM.
